{"source": "patent US20130202594A1", "about": "“ALK1 Antagonists and Their Uses in Treating Renal Cell Carcinoma” (priority 2012, published 2013)", "key": {"[1]": {"target": "GDF8 (Homo sapiens, UniProt O14793)", "test": "Biacore binding to hALK1-Fc: GDF8", "protocol": "(§1) ALK1 is a type 1 receptor for ligands of the TGFβ family. Multiple members of the TGFβ family were tested for binding to a human ALK1-Fc fusion protein, using a Biacore™ system."}, "[2]": {"target": "T1, BMP2 (Homo sapiens, UniProt P12643)", "T1 sequence (P12643 283-396)": "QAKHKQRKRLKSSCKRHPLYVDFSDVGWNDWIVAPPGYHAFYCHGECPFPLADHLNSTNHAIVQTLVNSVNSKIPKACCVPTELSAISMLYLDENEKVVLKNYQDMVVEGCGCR", "test": "Biacore binding to hALK1-Fc: BMP2", "protocol": "as §1"}, "[3]": {"system": "MDA-MB-231 cell line", "test": "MDA-MB-231-Luc orthotopic breast cancer xenograft", "type": "in vivo, mouse", "conditions": "similar experiment; dose levels as low as 3 mg/kg", "excerpt": "The MDA-MB-231 breast cancer cell line (derived from ER− cells) was stably transfected with the luciferase gene to allow for the in vivo detection of tumor growth and potential metastasis. In this study, 1×10^6 MDA-MB-231-Luc cells were implanted orthotopically in the mammary fat pad of athymic nude mice (Harlan). Tumor progression was followed by bioluminescent detection using an IVIS Spectrum imaging system (Caliper Life Sciences). An increase in the luminescence (number of photons detected) corresponds to an increase in tumor burden.\nThirty female nude mice were injected with 1×10^6 tumor cells into the mammary fat pad. Three days after tumor implantation the mice were treated with either vehicle control or mALK1-Fc (30 mg/kg) twice per week by subcutaneous (SC) injection. […] This may be expected of an antiangiogenic compound in that tumors may be able to survive to a certain size before requiring new blood vessel formation to support continued growth."}, "[4]": {"target": "TGFβ (Homo sapiens, UniProt P01137)", "sequence (P01137 279-390)": "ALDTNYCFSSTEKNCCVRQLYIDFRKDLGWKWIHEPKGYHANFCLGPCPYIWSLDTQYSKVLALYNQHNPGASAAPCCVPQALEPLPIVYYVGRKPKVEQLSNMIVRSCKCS", "test": "Biacore binding to hALK1-Fc: TGFβ", "protocol": "as §1"}, "[5]": {"target": "T2, BMP10 (Homo sapiens, UniProt O95393)", "T2 sequence (O95393 317-424)": "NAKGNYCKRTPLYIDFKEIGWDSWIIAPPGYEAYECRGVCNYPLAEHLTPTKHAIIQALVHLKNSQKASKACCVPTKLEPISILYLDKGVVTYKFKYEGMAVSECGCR", "test": "Biacore binding to hALK1-Fc: BMP10", "protocol": "as §1"}, "[6]": {"system": "ocular angiogenesis", "test": "Mouse corneal micropocket assay", "type": "in vivo", "conditions": "intraperitoneally; identical weight/weight dosages", "excerpt": "In preferred embodiments, an ALK1 ECD polypeptide binds to one or more of GDF5, GDF6, GDF7, BMP9 and BMP10. […] Binding may be assessed using purified proteins in solution or in a surface plasmon resonance system, such as a Biacore™ system. […] Bioassays for angiogenesis inhibitory activity include the chick chorioallantoic membrane (CAM) assay, the mouse corneal micropocket assay, or an assay known in the art for measuring the effect of administering isolated or synthesized proteins on implanted tumors. The CAM assay is described by O'Reilly, et al., in “Angiogenic Regulation of Metastatic Growth” Cell, 1994; 79 (2):315-328. Briefly, 3 day old chicken embryos with intact yolks are separated from the egg and placed in a petri dish. After 3 days of incubation, a methylcellulose disc containing the protein to be tested is applied to the CAM of individual embryos. After 48 hours of incubation, the embryos and CAMs are observed to determine whether endothelial growth has been inhibited. The mouse corneal micropocket assay involves implanting a growth factor-containing pellet, […] of capillaries that are elaborated in the cornea. Other assays are described in the Examples.\nSimilar data were obtained when a Matrigel plug impregnated with VEGF was implanted in a non-ocular location."}, "[7]": {"target": "T3, GDF5 (Homo sapiens, UniProt P43026)", "T3 sequence (P43026 382-501)": "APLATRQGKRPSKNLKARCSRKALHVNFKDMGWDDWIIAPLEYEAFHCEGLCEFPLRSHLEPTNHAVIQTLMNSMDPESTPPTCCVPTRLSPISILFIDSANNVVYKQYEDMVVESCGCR", "test": "Biacore binding to hALK1-Fc: GDF5", "protocol": "as §1"}, "[8]": {"target": "GDF11 (Homo sapiens, UniProt O95390)", "sequence (O95390 299-407, species assumed)": "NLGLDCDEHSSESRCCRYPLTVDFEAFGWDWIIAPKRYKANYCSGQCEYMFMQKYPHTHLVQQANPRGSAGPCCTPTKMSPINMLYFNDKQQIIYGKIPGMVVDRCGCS", "test": "Biacore binding to hALK1-Fc: GDF11", "protocol": "as §1"}, "[9]": {"system": "A498 cells", "test": "A498 human RCC tumor xenograft model", "type": "in vivo, mouse", "conditions": "for tumor growth, single agent: 10 mg/kg IP 3 times per week, vs Fc", "protocol": "A498 cells, a VHL-deficient human RCC cell line (see Iliopoulos et al., Nature Medicine 1995; 1:822-6), was obtained from the American Type Culture Collection, and cultured in Eagle's minimal essential medium. Media was supplemented with 2 mmol/L L-glutamine, 10% FCS, and 1% streptomycin (50 μg/mL), and cells were cultured at 37° C. with 5% CO2. […] cells were harvested from subconfluent cultures by a brief exposure to 0.25% trypsin and 0.02% EDTA. Trypsinization was stopped with medium containing 10% fetal bovine serum, and the cells were washed once in serum-free medium and resuspended in PBS. Only suspensions consisting of single cells with >90% viability were used for the injections.\nTo establish human RCC xenografts, A498 tumor cells were injected subcutaneously (1×10^7 cells) into the flanks of 6- to 8-week-old female athymic nude/beige mice (Charles River Laboratories) that were of 20 g average body weight. Tumors developed in >80% of the mice and were usually visible within a few days of implantation. Mice were treated with Fc or ALK-Fc when the tumors had grown to a diameter of 12 mm. ALK-Fc (10 mg/kg) was administered 3 times per week intraperitoneally. Tumors were measured daily while mice were on treatment.\nA498 cell culture and xenograft establishment was performed as described in Example 14. Mice were treated with vehicle plus Fc, sunitinib plus Fc, vehicle plus ALK-Fc, or subitinib plus ALK-Fc when the tumors had grown to a diameter of 12 mm. Sunitinib (53.6 mg/kg; Pfizer) was administered 6 of 7 days per week by gavage beginning. ALK1-Fc (10 mg/kg) was administered 3 times per week intraperitoneally. Tumors were measured daily while mice were on treatment."}, "[10]": {"system": "MCF-7 cell line", "test": "MCF-7 orthotopic breast cancer xenograft", "type": "in vivo, mouse", "conditions": "10 or 30 mg/kg twice per week IP", "protocol": "The estrogen-receptor-positive (ER+), luciferase expressing cell line, MCF-7, was also tested in an orthotopic implantation model. In this model, female nude mice are implanted subcutaneously with a 60 day slow release pellet of 17β-estradiol. Two days following pellet implantation, 5×10^6 MCF-7 tumor cells were implanted into the mammary fat pad. Mice were treated twice per week with hALK1-Fc at 3, 10 and 30 mg/kg, or vehicle control, by the IP route. Tumor progression was followed by bioluminescent imaging on a weekly basis with an IVIS-Spectrum imager (Caliper Life Sciences). In vehicle treated mice tumors progressed rapidly until study day 26 (FIG. 15). After day 26, there were fluctuations in tumor luminescence until the conclusion of the study at day 60 (when the estradiol pellets were depleted). These fluctuations are due to a common feature of this model in that the rapid tumor growth can exceed the angiogenic response of the host animals leading to tumor necrosis and a concomitant drop-off in luminescent signal. The remaining cells continue to grow leading to an increased signal."}}, "note": "“Also recorded” adds a separate entry of the source.", "data": [{"substance": "hALK1-Fc: extracellular domain of human ALK1 (amino acids 22-120) fused to a human IgG1 Fc with a minimal linker (SEQ ID NO:3/14)", "values": [{"measurement": "binding to hALK1-Fc", "setting": "[1]", "result": "failed to show substantial binding"}, {"measurement": "binding to hALK1-Fc", "setting": "[2]", "result": "failed to show substantial binding; also recorded: only limited binding"}, {"measurement": "tumor progression (bioluminescence)", "setting": "[3]", "result": "similar, if slightly lesser, effects"}, {"measurement": "binding to hALK1-Fc", "setting": "[4]", "result": "failed to show substantial binding"}, {"measurement": "Kd", "setting": "[5]", "result": "~3", "unit": "nM"}, {"measurement": "ocular angiogenesis", "setting": "[6]", "result": "significantly inhibited ocular angiogenesis; also recorded: to the same degree as anti-VEGF; also recorded: comparable effects"}, {"measurement": "Kd", "setting": "[7]", "result": "~50", "unit": "nM"}, {"measurement": "binding to hALK1-Fc", "setting": "[8]", "result": "failed to show substantial binding"}, {"measurement": "tumor growth, single agent", "setting": "[9]", "result": "inhibit tumor growth as a single agent"}, {"measurement": "tumor growth, single agent", "setting": "[9]; listed as ALK-Fc", "result": "dramatically slowed tumor growth"}, {"measurement": "effect on tumor growth inhibiting activity of sunitinib", "setting": "[9]; administered in combination with sunitinib", "result": "substantially increased the tumor growth inhibiting activity of sunitinib"}, {"measurement": "tumor growth", "setting": "[9]; combination study, sunitinib 53.6 mg/kg gavage, ALK1-Fc 10 mg/kg IP", "result": "slowed tumor growth"}, {"measurement": "tumor size / growth (bioluminescence)", "setting": "[10]", "result": "maintain tumor size at a constant level; also recorded: significant growth-delaying effect"}]}]}
